Results taken from ChEMBL document CHEMBL5046282, “Discovery of Brain-Penetrant Glucosylceramide Synthase Inhibitors with a Novel Pharmacophore” (J Med Chem, 2022).
≈ marks a conversion by molar mass, not a printed value. Calls of active or inactive are those of the source. The rule behind the calls is not given here.

Legend:
[1] = Intrinsic clearance in mouse liver microsomes at 1 uM in presence of NADPH generating system assessed per mg protein by LC-MS/MS analysis; format: ADME, Microsome; conditions: read-out: CLH
[2] = biological target: T1, Ceramide glucosyltransferase (Homo sapiens, UniProt Q16739); test: Inhibition of human GCS using C8-ceramide and UDP-glucose as substrate incubated for 1 hr by RapidFire mass spectrometry
T1 sequence (Q16739 whole entry): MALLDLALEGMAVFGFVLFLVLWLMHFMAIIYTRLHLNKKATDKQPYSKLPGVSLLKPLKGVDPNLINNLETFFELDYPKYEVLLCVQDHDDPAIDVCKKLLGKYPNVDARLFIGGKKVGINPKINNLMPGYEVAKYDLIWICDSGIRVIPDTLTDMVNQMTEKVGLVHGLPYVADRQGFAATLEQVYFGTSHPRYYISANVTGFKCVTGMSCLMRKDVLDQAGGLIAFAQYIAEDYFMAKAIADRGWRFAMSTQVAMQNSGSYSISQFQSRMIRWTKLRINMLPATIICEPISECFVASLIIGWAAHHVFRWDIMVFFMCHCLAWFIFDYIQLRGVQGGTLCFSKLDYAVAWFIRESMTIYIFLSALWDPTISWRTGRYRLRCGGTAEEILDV

[3] = 1-Octanol/aqueous buffer partition coefficient, logD of the compound at pH 7.4 by chromatographic method; format: physicochemical
[4] = Kinetic solubility of the compound in JP2 fluid at pH 6.8 by precipitation method; format: physicochemical; conditions: read-out: Kinetic_solubility
hERG = hERG (Homo sapiens, UniProt Q12809); test: Inhibition of hERG expressed in CHO-K1 cells at 10 uM incubated for 5 mins by whole cell-automated voltage clamp analysis; format: toxicity, cell-based; conditions: CHO-K1 cells expressing hERG
Chain of hERG (Q12809 whole entry): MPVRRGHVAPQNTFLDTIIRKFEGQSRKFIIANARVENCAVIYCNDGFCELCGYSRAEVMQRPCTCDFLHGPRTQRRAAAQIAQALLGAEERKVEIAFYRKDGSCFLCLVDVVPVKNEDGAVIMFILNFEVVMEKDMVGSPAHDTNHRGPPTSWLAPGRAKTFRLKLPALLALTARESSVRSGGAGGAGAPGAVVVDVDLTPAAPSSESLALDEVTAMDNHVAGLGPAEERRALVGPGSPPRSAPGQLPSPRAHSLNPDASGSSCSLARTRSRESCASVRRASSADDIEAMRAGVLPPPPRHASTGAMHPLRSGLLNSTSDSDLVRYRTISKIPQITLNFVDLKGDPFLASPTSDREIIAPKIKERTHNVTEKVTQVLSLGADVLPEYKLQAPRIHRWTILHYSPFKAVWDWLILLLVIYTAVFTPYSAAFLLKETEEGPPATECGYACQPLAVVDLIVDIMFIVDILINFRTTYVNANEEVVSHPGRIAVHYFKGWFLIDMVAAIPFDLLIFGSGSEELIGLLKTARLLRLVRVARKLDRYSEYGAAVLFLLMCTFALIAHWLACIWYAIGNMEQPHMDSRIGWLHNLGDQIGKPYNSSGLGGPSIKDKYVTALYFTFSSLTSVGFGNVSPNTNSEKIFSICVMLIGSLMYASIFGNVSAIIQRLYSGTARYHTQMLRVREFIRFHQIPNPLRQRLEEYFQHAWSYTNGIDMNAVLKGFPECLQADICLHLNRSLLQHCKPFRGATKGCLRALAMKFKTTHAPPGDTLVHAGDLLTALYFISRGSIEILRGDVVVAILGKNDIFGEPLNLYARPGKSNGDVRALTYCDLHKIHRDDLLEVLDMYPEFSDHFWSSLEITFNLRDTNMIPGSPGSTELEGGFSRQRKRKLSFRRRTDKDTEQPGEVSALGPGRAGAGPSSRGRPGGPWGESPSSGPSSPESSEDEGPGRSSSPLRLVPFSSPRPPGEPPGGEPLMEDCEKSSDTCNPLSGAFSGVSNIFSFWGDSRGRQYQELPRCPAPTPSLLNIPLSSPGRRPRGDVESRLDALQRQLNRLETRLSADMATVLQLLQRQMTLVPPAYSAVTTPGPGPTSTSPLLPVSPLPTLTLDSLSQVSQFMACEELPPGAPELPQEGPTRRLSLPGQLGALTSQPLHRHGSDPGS

[5] = Efflux ratio of apparent permeability from basolateral to apical side over apical to basolateral side in dog MDCK-MDR1 cells at 1 uM measured after 1 hr by LC-MS/MS analysis; format: ADME, cell-based, Canis lupus familiaris
[6] = biological target: T2, Ceramide glucosyltransferase (Homo sapiens) (UniProt Q16739); test: Uncompetitive inhibition of GCS (unknown origin) using 1 to 70 uM C8-ceramide and 0.1 to 200 uM UDP-glucose as substrate incubated for 1 hr by RapidFire mass spectrometry
T2 sequence (whole entry): T1 sequence (Q16739 whole entry)

microsomal CLint at 1 µM [1] [µL/min/mg]	IC50 [2] [µM]	chromatographic logD [3]	solubility kinetic [4] [µg/mL]	efflux ratio at 1 h, 1 µM [5]	inhibition [6]	SMILES	inhibition at 5 min, 10 µM (hERG) [%]
560	> 100					COc1ccccc1-c1nccc2c1CN(c1ccccc1C)C2=O	
14	0.049	3	< 0.15	2.6		O=C1c2ccnc(-c3ccc(F)cc3OC(F)(F)F)c2CN1c1ccc(F)cc1	51.4
727	> 100					COc1ccccc1-c1nccc2c1CN(C1CCCCC1)C2=O	
	0.17	3.6		2.2		CC(C)(O)c1ccc(NC(=O)c2cccc(-c3ccccc3OCC(F)(F)F)n2)cc1	
	0.017	2.86		4		CC(C)(C#N)c1ccc(N2Cc3c(ccnc3-c3ccc(F)cc3OCC(F)(F)F)C2=O)cc1	39.4
	0.049	2.55		6.6		CC(C)(O)c1ccc(NC(=O)c2ccnn(-c3ccc(F)cc3OCC(F)(F)F)c2=O)cc1	
131	4.9					COc1cc(F)ccc1-c1nccc2c1CN(c1ccc(F)cc1)C2=O	
	0.63	1.86		32		CS(=O)(=O)c1ccc(N2Cc3c(ccnc3-c3ccc(F)cc3OCC(F)(F)F)C2=O)cc1	23.7
	1.3	2.94	0.9 (≈ 2.84 µM)			COc1ccccc1-c1cncc2c1CN(c1ccccc1)C2=O	
	0.04	2.67		7.3		CC(C)(O)COc1ccc(N2Cc3c(ccnc3-c3ccc(F)cc3OCC(F)(F)F)C2=O)cc1	17.6
> 768	> 100					COc1cccc(-c2nccc3c2CN(c2ccccc2)C3=O)c1	
	3.2	3.16		3		CC(C)(O)c1ccc(NC(=O)c2cccc(-c3ccccc3OCC(F)(F)F)c2)cc1	
	4.4	2.45	22 (≈ 72.1 µM)			COc1ccccc1-n1ncc2c1CN(c1ccccc1)C2=O	
509	1					COc1ccccc1-c1nccc2c1CN(c1ccc(F)cc1)C2=O	
	0.019	2.12		15		CC(C)(O)c1ccc(NC(=O)c2cccn(-c3ccccc3OCC(F)(F)F)c2=O)cc1	

The remaining lines, values behind:

SMILES	microsomal CLint at 1 µM [1] [µL/min/mg]	IC50 [2] [µM]	chromatographic logD [3]	solubility kinetic [4] [µg/mL]	efflux ratio at 1 h, 1 µM [5]	inhibition [6]	inhibition at 5 min, 10 µM (hERG) [%]
COc1ccccc1-c1nccc2c1CN(c1ccccc1)C2=O	> 768	1.9	2.84	18 (≈ 56.9 µM)			
O=C1c2ccnc(-c3ccccc3)c2CN1c1ccccc1	> 768	> 100					
COc1ccccc1-c1nccc2c1CN(c1ccc(C)cc1)C2=O	> 768	0.097					
COc1ccccc1-c1nccc2c1CN(c1cccc(C)c1)C2=O	584	4.4					
CCCCCCCC(=O)N[C@H](CN1CCCC1)[C@H](O)c1ccc2c(c1)OCCO2						Active	
CC(C)(O)c1ccc(NC(=O)c2cccc(-c3ccccc3OCC(F)(F)F)c2F)cc1		0.045	3.06		1.9		
COc1ccccc1-c1ccnc2c1CN(c1ccccc1)C2=O		17	2.81	4 (≈ 12.6 µM)			
COc1ccccc1-c1cccc2c1CN(c1ccccc1)C2=O		2.4	3.87	< 0.1			
CN(C)C(=O)c1ccc(N2Cc3c(ccnc3-c3ccc(F)cc3OCC(F)(F)F)C2=O)cc1		0.7	1.99		35		41.8
COc1ccccc1-c1ccc2c(c1)CN(c1ccccc1)C2=O		> 100					
